In patent publication US11939302B2, “Compounds for the treatment of Alzheimer's disease” (The Governors of the University of Alberta, priority 2020, dated 2024):
No end group written: not given here.

Legend:
[1] = target: T1, amylin receptor subtype 3 (AMY3) (Homo sapiens, UniProt O60896+P30988); assay: Kinetic intracellular Ca2+ changes (Fluo-8L-AM) in AMY3-HEK293 cells; format: cell-based; conditions: human amylin 0.5 μM; compound 0.01-10 μM range; FIG. 3
T1 construct: expressed in transfected cells
T1 sequence (P30988 25-474): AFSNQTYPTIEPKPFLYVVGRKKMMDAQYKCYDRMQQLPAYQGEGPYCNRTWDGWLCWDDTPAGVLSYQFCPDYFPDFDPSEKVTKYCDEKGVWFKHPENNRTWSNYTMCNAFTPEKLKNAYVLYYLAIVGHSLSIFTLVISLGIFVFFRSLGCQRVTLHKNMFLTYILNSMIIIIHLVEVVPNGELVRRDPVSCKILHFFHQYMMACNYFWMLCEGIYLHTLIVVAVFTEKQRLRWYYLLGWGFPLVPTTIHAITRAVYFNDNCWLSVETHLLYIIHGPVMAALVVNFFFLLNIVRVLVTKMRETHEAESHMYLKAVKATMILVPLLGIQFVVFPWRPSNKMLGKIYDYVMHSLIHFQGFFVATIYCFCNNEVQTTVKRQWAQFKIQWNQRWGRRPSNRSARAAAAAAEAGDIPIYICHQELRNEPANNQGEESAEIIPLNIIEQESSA
T1 sequence (O60896 24-148 partner): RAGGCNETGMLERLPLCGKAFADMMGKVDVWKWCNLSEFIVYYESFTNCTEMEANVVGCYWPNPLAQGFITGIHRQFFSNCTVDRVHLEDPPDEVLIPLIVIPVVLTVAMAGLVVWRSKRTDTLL
Method: Kinetic Intracellular Ca^2+ Changes. Dynamic changes of the free cytosolic Ca2+ concentration were monitored with microplate reader. For monitor amylin induced intracellular Ca^2+, AMY3-HEK293 cells were plated on 96 well cell culture plates and incubated at 37° C. for 12-36 h with DMEM, 10% FBS, and Zeocin medium. For Ca^2+ changes, the AMY3-HEK293 cells were washed twice with assay solution which ion content similar to extracellular brain fluid thus containing the following: 130 mM NaCl, 4 mM KCl, 1 mM MgCl2, 2 mM CaCl2), 10 mM HEPES, and 10 mM glucose (pH 7.35). Then incubated with the membrane-permeant fluorescent Ca^2+-sensitive dye Fluo-8L-AM (AAT Bioquest, Inc., Sunnyvale, CA), with 5 μM of the agent for 40 min at room temperature (20-23° C.) in assay solution. The test compounds were added in various concentrations of 0.01, 0.1, 1, and 10 μM for 10 min and kinetic measured the fluorescent intensity with Varioskan-LUX microplate reader (Thermo Fisher Scientific, Waltham, MA). Human amylin were dissolved in sterile bidistilled water at 1 mM stock solution and incubated at room temperature for 10 min before dilution with assay solution for use at a final concentration of 0.5 μM. Fluorescent intensity was measured at excitation/emission wavelength of 488/514 nm, excitation bandwidth 12 nm, kinetic interval 1 min, and measure time at 100 ms. […]

[2] = test system: hippocampal long term potentiation (LTP); assay: Hippocampal long term potentiation (LTP) electrophysiology in brain slices; design: species or system mice; conditions: for LTP levels in hippocampal slices from transgenic AD mice (TgCRND8), chronically depressed LTP: compared with age matched wild type control (WT_Cont); for Effect on LTP from wild type control (WT_Cont) mice: WT_Cont slices; for Amyloid beta (Aβ)-induced depression of LTP / Human amylin-induced depression of LTP: compound 1 μM, brain hippocampal slices
From the text: Hippocampal long term potentiation (LTP) electrophysiology experiments: an in vitro cellular surrogate for memory. Brains were quickly removed from mice following decapitation, placed in a cold artificial cerebral spinal fluid (aCSF) on a vibratome chamber and transverse sections cut through the hippocampus. The aCSF contained (in mM) 124 NaCl, 3 KCl, 2.4 CaCl2), 2 MgCl2, 1.25 NaH2PO4, 26 NaHCO3 and 10 D-glucose, and was equilibrated with 95% 02 and 5% CO2. Hippocampal slices ([…]) were maintained in aCSF-filled holding chamber at room temperature for at least 1 hour and individually transferred to the submerged glass bottom recording chamber, which was constantly perfused with aCSF (2 mL/min) at 30° C. Field excitatory postsynaptic potential (fEPSP) was recorded with a metallic (Pt/Ir) electrode (FHC, Bowdoin, ME) from the stratum radiatum layer of Cornu ammonis 1 region of the hippocampus (CA1) area, and the Schaffer collateral afferents were stimulated with 100-μs test pulses via a bipolar cluster electrode (FHC) (Kimura et al., 2012, Kimura et al. 2016). To evaluate basal synaptic transmission, we applied different stimulation strengths (75 μA to 300 μA in steps of 25 μA) and plotted the amplitudes of presynaptic fiber volleys versus the corresponding fEPSP slopes to compare the slope of input/output (I/O) curves of fEPSP. For long-term potentiation (LTP) experiments, the stimulus strength was set to elicit 40-50% of the maximum fEPSP amplitude and test pulses were delivered to Schaffer collaterals once every 30 seconds. LTP was induced by 3-theta-burst stimulation (3-TBS) protocol (each burst consisted of 4 pulses at 100 Hz with a 200-ms inter-burst interval). Before 3-TBS or drug application, the responses were monitored for at least 10 minutes to ensure a stable baseline of fEPSP. […] Results were from various treatment groups were plotted as histograms with means±standard error (SE). Statistical analysis was performed using one-way ANOVA followed by post-hoc Tukey's honestly significant difference (HSD) test (for multiple comparisons) or Student's t test (for pair-wise comparisons). All drugs and chemicals were applied directly to the slice via bath perfusion, which allowed for a complete exchange of the perfusate in less than a minute and a half.

[3] = target: T1, amylin receptor subtype 3 (AMY3); assay: cAMP ELISA in AMY3-HEK cells, reduction of human amylin induced cAMP; format: cell-based; conditions: FIG. 2; for Mode of action indicated by cAMP assays in amylin receptor subtype 3 expressing cells: AMY3 expressing cells; for Human amylin generation of cAMP in the presence of compound: human amylin 0.1 μM, compound 10 μM, AMY3-HEK cells
Method: Compounds described herein were screened using a cAMP (cyclic adenosine monophosphate) assay in amylin receptor subtype 3 expressing cells (See FIG. 1).
Cell Cultures. Amylin receptor subtypes (AMY3-HEK cells) stably expressed in human embryonic kidney (HEK293) cell-line were generated and characterized as described in a previous published article (Fu et al., J. Biol. Chem. 2012). The AMY3-HEK cells were grown in a 5% CO2 humidified incubator at 37° C. with DMEM, 10% FBS, and 100 μg/mL Zeocin medium.
ELISA (enzyme-linked immunosorbent assay). Cellular cAMP levels were measured using a parameter cyclic AMP assay kit (R&D Systems) according to the manufacturer's instructions. Briefly, AMY3-HEK cells were plated on 24-well plates overnight. These cells were then incubated with or without the assay compounds and hAmylin for 5 min. The cells were lysed with lysis buffer provided in the assay kit. Standard curves were plotted using the cAMP standards provided in the ELISA kits. All samples were analyzed in duplicate. The plate was measured at 450 nm. Data was plotted, and non-linear regression was fitted with four parameters using Prism software (GraphPad Software, La Jolla, CA).
Compounds were assayed based on potency of reduction at 10 μM of 0.1 μM human Amylin (hAmylin) induced cAMP increases.

N2a neuronal cells = assay: MTT cell death assay, amyloid beta toxicity; format: cell-based, mouse; conditions: N2a cell line; Aβ1-42 10 μM, soluble oligomeric; 24-48 h; FIG. 4
Method: MTT Cell Death Assay. The N2a (mouse) and SK-N-SH (human) neuronal cells were seeded to 5000 cells/well in a 96-well plate in DMEM medium, 10% FBS and incubated overnight. Cells in culture medium were incubated either with or without the assay compounds and Aβ1-42, 10 μM for 24-48 h. At the end of treatment, 20 μL of 5 mg/mL 3-(4,5-dimethylthiazol-2-yl)-2,5-diphenyltetrazolium bromide (MTT, Sigma) was added to each well and incubated at 37° C. for 3 h. Medium was removed, 100 μL of MTT solvent (isopropanol with 4 mM HCl) was added to each well, and the plates were incubated for 30 min at room temperature on a rotating shaker. Plates were analyzed on a microplate reader at a 562 nm wavelength.

Aβ toxicity = conditions: Jhamandas et al., 2004; 2011; 2012; cited from earlier work
long-term potentiation = conditions: hippocampus of TgCRND8 mice; Kimura et al., 2012; 2016; cited from earlier work

Row | Elevations in intracellular calcium evoked by human amylin [1] | Mode of action indicated by cAMP assays in amylin receptor subtype 3 expressing cells [3] | Human amylin generation of cAMP in the presence of compound [3] | Compound | LTP levels in hippocampal slices from transgenic AD mice (TgCRND8), chronically depressed LTP [2] | Effect on LTP from wild type control (WT_Cont) mice [2] | Amyloid beta (Aβ)-induced depression of LTP [2] | Human amylin-induced depression of LTP [2] | Cytoprotection against amyloid beta (Abeta) toxicity, cell viability by MTT (N2a neuronal cells) | Neuroprotection against Aβ toxicity (Aβ toxicity) | Aβ- or human amylin-induced depression of long-term potentiation (long-term potentiation)
1 | attenuated | amylin receptor antagonists | attenuated | O=c1[nH]c2ccccc2n(CCCO)c1=O [Compound 1, 1-(3-hydroxypropyl)-1,4-dihydroquinoxaline-2,3-dione] | increased LTP levels | no effects | blocked | blocked | cytoprotective | – | –
2 | attenuated | amylin receptor antagonists | attenuated | O=C1CN(C(=O)CCO)c2ccccc2N1 [Compound 10, 4-(3-hydroxypropanoyl)-3,4-dihydroquinoxalin-2(1H)-one] | increased LTP levels to levels observed in WT_Cont mice | no effects | blocked | blocked | cytoprotective | – | –
3 | – | – | – | AC253: peptide antagonist of the amylin receptor, 24 amino acids, SEQ ID NO: 1 (Ac-LGRLSQELHRLQTYPRTNTGSNTY) | – | – | – | – | – | neuroprotective | reverse impairment
